In ChEMBL document CHEMBL1130712, “Phenylpiperazine derivatives with strong affinity for 5HT1A, D2A and D3 receptors” (Bioorg Med Chem Lett, 1998):

Assays:
[1] = target: T1, 5-hydroxytryptamine receptor 1A (Rattus norvegicus, UniProt P19327); assay: Compound was measured for the inhibition of [3H]8-OH-DPAT binding to rat hippocampus membrane (5-HT1A receptor); type: tissue-based
T1 sequence (P19327 whole entry): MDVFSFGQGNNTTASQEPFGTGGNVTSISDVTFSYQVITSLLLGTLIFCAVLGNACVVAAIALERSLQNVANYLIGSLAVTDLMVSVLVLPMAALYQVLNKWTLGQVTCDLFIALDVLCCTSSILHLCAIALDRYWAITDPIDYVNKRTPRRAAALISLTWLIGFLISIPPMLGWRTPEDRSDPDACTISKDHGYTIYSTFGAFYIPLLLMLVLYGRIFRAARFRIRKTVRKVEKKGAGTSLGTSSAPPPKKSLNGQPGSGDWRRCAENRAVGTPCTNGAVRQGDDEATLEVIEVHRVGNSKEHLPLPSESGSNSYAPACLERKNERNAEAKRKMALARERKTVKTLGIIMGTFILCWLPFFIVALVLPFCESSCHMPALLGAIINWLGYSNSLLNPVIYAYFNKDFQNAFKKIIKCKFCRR

D(2) dopamine receptor = D(2) dopamine receptor (Homo sapiens, UniProt P14416); assay: Compound was measured for the binding affinity in homogenated mouse fibroblast (LTK) cells transfected with human Dopamine receptor D2A using [3H]raclopride as radioligand.
Chain of D(2) dopamine receptor (P14416 whole entry): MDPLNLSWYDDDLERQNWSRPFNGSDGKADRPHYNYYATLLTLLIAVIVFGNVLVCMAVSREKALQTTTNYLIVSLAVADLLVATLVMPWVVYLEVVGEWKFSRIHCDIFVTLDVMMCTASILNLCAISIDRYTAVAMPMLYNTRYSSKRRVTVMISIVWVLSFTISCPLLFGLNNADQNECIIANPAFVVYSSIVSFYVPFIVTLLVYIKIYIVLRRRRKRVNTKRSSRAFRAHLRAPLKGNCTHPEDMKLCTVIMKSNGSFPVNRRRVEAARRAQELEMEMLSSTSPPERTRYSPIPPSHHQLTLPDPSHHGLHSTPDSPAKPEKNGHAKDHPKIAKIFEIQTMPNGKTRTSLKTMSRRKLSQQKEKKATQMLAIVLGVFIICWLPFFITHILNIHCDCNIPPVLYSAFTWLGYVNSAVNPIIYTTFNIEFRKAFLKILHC

D(3) dopamine receptor = D(3) dopamine receptor (Homo sapiens, UniProt P35462); assay: Compound was measured for the binding affinity in chinese hamster ovary (CHO) cells transfected with human Dopamine receptor D3 using [3H]raclopride as radioligand; type: cell-based
Chain of D(3) dopamine receptor (P35462 whole entry): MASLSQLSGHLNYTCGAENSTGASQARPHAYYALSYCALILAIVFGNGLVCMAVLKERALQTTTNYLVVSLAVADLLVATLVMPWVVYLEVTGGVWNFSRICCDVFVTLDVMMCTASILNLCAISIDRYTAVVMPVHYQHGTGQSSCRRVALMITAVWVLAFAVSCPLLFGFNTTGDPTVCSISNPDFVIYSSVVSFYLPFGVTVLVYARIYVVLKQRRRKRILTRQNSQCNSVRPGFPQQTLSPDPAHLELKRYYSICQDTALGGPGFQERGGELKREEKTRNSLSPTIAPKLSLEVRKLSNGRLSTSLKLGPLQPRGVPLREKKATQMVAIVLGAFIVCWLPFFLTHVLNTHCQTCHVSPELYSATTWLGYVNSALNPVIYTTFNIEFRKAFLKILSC

Compound	Ki [1] [nM]	Ki (D(2) dopamine receptor) [nM]	Ki (D(3) dopamine receptor) [nM]
O=c1ccc2ccc(OCCCN3CCN(c4ccccc4)CC3)cc2o1	5.61	16	49.7
Cc1c(C)c2ccc(OCCCN3CCN(c4ccccc4)CC3)cc2oc1=O	5.31	5.92	44.7
Cc1cc2ccc(OCCCN3CCN(c4ccccc4)CC3)cc2oc1=O		10.8	18.9
Cc1cc(=O)oc2cc(OCCCN3CCN(c4ccccc4)CC3)ccc12	5.54	13.7	73.8
